# Laboratory results published in US20230372277A1, “COMPOSITION FOR PROMOTING HAIR GROWTH AND/OR INHIBITING HAIR LOSS” (priority 2020, published 2023).
# Marks after values point to notes of the source that are not given here.
# Legend:
# [1] = tested on: dihydrotestosterone (DHT); assay: DHT concentration in plasma (ELISA kit) of testosterone-injected rats; assay type: in vivo, male wistar albino rats; conditions: for concentration of DHT in plasma (FIG. 4b): testosterone-injected rats, compounds or mixture oral 10 mg/kg daily 21 days
# Experimental: (§1) For 21 days, the testosterone solution and broccoli extract, avocado extract or broccoli and avocado extract were administered, and on the next day, before skin samples were collected, plasma from rats was extracted and the concentration of testosterone and DHT were measured using a testosterone and DHT ELISA kit (Arigo Biolaboratories, Taiwan) according to the manufacturer's instructions.
# hair follicles [2] = assay: Density of hair follicles in skin (number in 1 mm^2); assay type: in vivo, male wistar albino rats; conditions: testosterone-injected rats; for Rate of change compared to normal group (%) (density of hair follicles): Table 7, Equation 1, compounds or mixture oral 10 mg/kg daily 21 days
# Experimental: The density of hair follicles was measured by counting the number of hair follicles in a unit area (1 mm^2).
# Rate of change compared to normal group=(hair follicle density of negative control group or experimental group−hair follicle density of normal group)/hair follicle density of normal group (Equation 1)
# (§2) The normal control group (control; normal group) is a group in which neither testosterone nor the extract is administered, and the negative control group (Testosterone; T) is a group in which only testosterone is administered.
# as §2
# as §2, with “As a comparative group, the mixture was administered by the same method, and the administration method was a method of intraperitoneal administration (IP). The” for “The”
# hair follicles [3] = assay: Ratio of anagen stage and telogen stage of hair follicles in skin; conditions: for Rate of change compared to normal group (anagen/telogen ratio) / Anagen/telogen ratio / Anagen / Telogen: testosterone-injected rats
# Experimental: Male wistar albino rats weight 180 to 240 g, February to March age were bred under the conditions of a constant light-dark cycle in which light was applied from 8 am to 8 pm, a temperature of 22 to 25° C., and a relative humidity of 60%. For the feed of experimental animals, a general pellet dry feed was used, and feed and water were allowed to be consumed at all times.
# In addition, the broccoli extract and/or avocado extract prepared in Example 1 were orally administered for a total of 21 days daily so as to be a dose of 100 mg per 1 kg of the body weight of each experimental animal (in case of coadministration group, broccoli extract 67 mg/kg+avocado extract 33 mg/kg).
# Rate of change compared to normal group=(anagen/telogen ratio of negative control group or experimental group−anagen/telogen ratio of normal group)/anagen/telogen ratio of normal group (Equation 2)
# hair follicles [4] = assay: Shape and length of hair follicles in haematoxylin and eosin stained dorsal skin; assay type: in vivo, male wistar albino rats; conditions: testosterone-injected rats; for length of hair follicles (FIG. 5): compounds or mixture oral 10 mg/kg daily 21 days, compared to negative control (negative control compared to normal group)
# Experimental: By staining the skin tissue of experimental animals, the shape change of hair follicles was investigated. […] After 24 hours, the skin sample was soaked in paraffin wax and sectioned to a uniform thickness of 10 μm, and hair follicles were stained with haematoxylin and eosin.
# testosterone = assay: Testosterone concentration in plasma (ELISA kit) of testosterone-injected rats; assay type: in vivo, male wistar albino rats; conditions: for concentration of testosterone in plasma (FIG. 4a): testosterone-injected rats, compounds or mixture oral 10 mg/kg daily 21 days
# Experimental: as §1
# [5] = Table 7, compounds or mixture (SFN 8 + I3C 1 + β-sitosterol 1 mg/kg) oral 10 mg/kg daily 21 days, mean ± SEM, n = 15
# [6] = Table 8, Equation 2, compounds or mixture oral 10 mg/kg daily 21 days
# [7] = Table 8, compounds or mixture oral 10 mg/kg daily 21 days
# [8] = rats injected s.c. with testosterone 21 days, extracts oral 100 mg/kg daily 21 days (mixture BE 67 + AE 33 mg/kg), negative control compared to normal group
# [9] = Table 8, compounds or mixture oral 10 mg/kg daily 21 days, listed as Group B, 10 mg/kg
# [10] = Table 8, compounds or mixture oral 10 mg/kg daily 21 days, listed as testosterone solution, 10 mg/kg
smiles,measurement,setting,value
C[S+]([O-])CCCCN=C=S (stereo not drawn) [sulforaphane],concentration of DHT in plasma (FIG. 4b),[1],significantly reduced
same,Rate of change compared to normal group (%) (density of hair follicles),hair follicles [2]; 10 mg/kg,about 47%
same,Rate of change compared to normal group (%) (density of hair follicles),"hair follicles [2]; listed as Group C, 10 mg/kg",+47.33%
same,Density of hair follicles,hair follicles [2]; [5],1.93 ± 0.102
same,Rate of change compared to normal group (anagen/telogen ratio),hair follicles [3]; [6],−47.05%
same,Anagen/telogen ratio,hair follicles [3]; [7],1.03*
same,length of hair follicles (FIG. 5),hair follicles [4],increased
same,concentration of testosterone in plasma (FIG. 4a),testosterone,significantly reduced
OCc1c[nH]c2ccccc12 [indole-3-carbinol],concentration of DHT in plasma (FIG. 4b),[1],significantly reduced
same,Rate of change compared to normal group (%) (density of hair follicles),hair follicles [2]; 10 mg/kg,about 21%
same,Rate of change compared to normal group (%) (density of hair follicles),"hair follicles [2]; listed as Group D, 10 mg/kg",+21.37%
same,Density of hair follicles,hair follicles [2]; [5],1.59 ± 0.74
same,Rate of change compared to normal group (anagen/telogen ratio),hair follicles [3]; [6],−54.88%
same,Anagen/telogen ratio,hair follicles [3]; [7],0.87*
same,length of hair follicles (FIG. 5),hair follicles [4],increased
same,concentration of testosterone in plasma (FIG. 4a),testosterone,significantly reduced
"C[C@]12CC[C@H]3[C@@H](CCC4=CC(=O)CC[C@@]43C)[C@@H]1CC[C@@H]2O [Testosterone, testosterone]",concentration of DHT in plasma (FIG. 1b),[1]; [8],largely increased
same,concentration of DHT in plasma (FIG. 4b),[1],largely increased
same,Rate of change compared to normal group (hair follicle density),"hair follicles [2]; Table 2, Equation 1, extracts oral 100 mg/kg daily 21 days",−30.53%
same,Hair follicle density,"hair follicles [2]; Table 2, number of hair follicles in 1 mm^2, extracts oral 100 mg/kg daily 21 days, mean ± SEM, n = 15",0.91 ± 0.069
same,Hair follicle density,"hair follicles [2]; Table 5, broccoli extracts by extraction solvent, same method as Example 3-2, mean ± standard error",0.98 ± 0.23
same,Rate of change compared to normal group (%) (density of hair follicles),hair follicles [2],−30.53%
same,Density of hair follicles,hair follicles [2]; [5],0.91 ± 0.069
same,Rate of change compared to normal group (density of hair follicles),"hair follicles [2]; Table 9, Equation 1, mixtures at various mixing ratios, oral 10 mg/kg in total daily 21 days",−21.6%
same,Density of hair follicles,"hair follicles [2]; Table 9, SFN:I3C:β-sitosterol mixtures at various mixing ratios, oral 10 mg/kg in total daily 21 days, mean ± standard error",0.98 ± 0.23
same,Rate of change compared to normal group (anagen/telogen ratio),"hair follicles [3]; Table 3, Equation 2, extracts oral 100 mg/kg daily 21 days",−91.23%
same,Anagen,"hair follicles [3]; Table 3, hair follicles in anagen stage, extracts oral 100 mg/kg daily 21 days, listed as Group 2, 100 mg/kg",14.6
same,Anagen,"hair follicles [3]; Table 3, hair follicles in anagen stage, extracts oral 100 mg/kg daily 21 days, listed as testosterone solution, 100 mg/kg",reduced
same,Telogen,"hair follicles [3]; Table 3, hair follicles in telogen stage, extracts oral 100 mg/kg daily 21 days, listed as Group 2, 100 mg/kg",85.4
same,Telogen,"hair follicles [3]; Table 3, hair follicles in telogen stage, extracts oral 100 mg/kg daily 21 days, listed as testosterone solution, 100 mg/kg",increased
same,Anagen/telogen ratio,"hair follicles [3]; Table 3, extracts oral 100 mg/kg daily 21 days",0.171
same,Rate of change compared to normal group (anagen/telogen ratio),hair follicles [3]; [6],−91.23%
same,Anagen/telogen ratio,hair follicles [3]; [7],0.17
same,Anagen,hair follicles [3]; [9],14.6
same,Telogen,hair follicles [3]; [9],85.4
same,Anagen,hair follicles [3]; [10],reduced
same,Telogen,hair follicles [3]; [10],increased
same,anagen/telogen ratio reduced compared to the normal group,hair follicles [3]; negative control group administered only with the testosterone solution s.c. 21 days,about 91%
same,length of hair follicles (FIG. 5),hair follicles [4],largely reduced
same,"shape change of hair follicles (stained photograph, FIG. 2)","hair follicles [4]; extracts oral 100 mg/kg daily 21 days, H&E stained dorsal skin",many hair follicles in the telogen stage were found
same,length of hair follicles (FIG. 3),"hair follicles [4]; extracts oral 100 mg/kg daily 21 days, extracts compared to negative control, negative control compared to normal group",largely reduced
same,concentration of testosterone in plasma (FIG. 1a),testosterone; [8],largely increased
same,concentration of testosterone in plasma (FIG. 4a),testosterone,largely increased
CC[C@H](CC[C@@H](C)[C@H]1CC[C@H]2[C@@H]3CC=C4C[C@@H](O)CC[C@]4(C)[C@H]3CC[C@]12C)C(C)C [β-sitosterol],concentration of DHT in plasma (FIG. 4b),[1],significantly reduced
same,Rate of change compared to normal group (%) (density of hair follicles),hair follicles [2]; 10 mg/kg,about 68%
same,Rate of change compared to normal group (%) (density of hair follicles),"hair follicles [2]; listed as Group E, 10 mg/kg",+67.56%
same,Density of hair follicles,hair follicles [2]; [5],2.195 ± 0.093
same,length of hair follicles (FIG. 5),hair follicles [4],increased
